Data taken from EP0470323A2, “New salts of the nicotinic acid with aminobenzylic compounds and their pharmaceutical use” (BROMLEY LIMITED, priority 1990, dated 1992).

Tests used:
[1] = tested on: pl strain of Schiosaccharomyces Pombe; assay: Frequency of mutations in yeast, with and without microsomal fraction; assay type: cell-based; conditions: tested dosages, with and without microsmial fraction
Source text: The compound according to the Example 1 has been tested, in order to check and see its mutagenic effects.

[2] = tested on: Central artery of a rabbit's ear; assay: In vitro antispastic action, adrenalin-induced spasm of the perfused isolated artery; conditions: spasm induced by Adrenalin, n=4, listed as Compound accord.Ex.1
Description: An "in vitro" method has been used, according to which the withdrawal of the central artery of a rabbit's ear with the relevant nervous connections and the equipment of an appropriate seat for secluded organs was designed (Fleckenstein A., British Journal of Pharmacology 7, 533, 1952).
On the artery they did install a three-ways tube, connected with a peristaltic pump and with a mercury manometer to record the perfusion pressure. The artery was perfused with a rebs liquid at the speed of 2,5 ml/minute. The contractions were induced by injecting into the vessel 0,1 ml adrenalin at the concentration of 1 mcg/ml. The compound according to the example 1 has been added to the bath at concentrations of 0,5 - 1 - 2 uM, five minutes before the adrenalin (four preparations per concentration). As comparison drugs, chlorhydra ted Buflomedil and Papaverin have been used. The activity of the material under investigation has been appreciated in terms of percentages referring to the concentration induced by the Adrenalin (and expressed with DE₅₀) and the relevant forbidding.

[3] = tested on: skin temperature of the mouse's paw; assay: Peripheral vessel-dilating activity in the mouse (skin temperature of hind paws); assay type: in vivo; conditions: for Temperature (°C) of the hind paws (n=10): intravenous; for Temperature (°C) of the hind paws: oral
Description: The method of Richter W. (Acta Pharm. Toxicol. 21, 91; 1974) was used; it consists in determining, at fixed time intervals after the treatment, the skin temperature of the mouse's paw, by keeping the animals in rooms at a constant temperature of 21°C.
Some groups of ten male mouses each have been used; the weight of each animal was 30 g approximately.
The compound according to the Example 1 has been tested "per os" at three basic levels of the doses (0,125 - 0,25 - 0,5 mM/kg) and by intravenous injection at two dose levels (0,015 and 0,03 mM/kg), in comparison with one sole dose of Papaverin and chlorhydrated Buflomedil (0,5 mM/kg "per os" and 0,03m M/kg intravenous). The observation of the skin temperature at the mouse's paw was made before the treatment, 30, 60 and 120 minutes after the "per os" treatment, […] (A-Hl Ellab) connected with an Ellab electric recorder. Of each animal the temperature of both hind paws has been measured, and the values obtained have been averaged .

[4] = tested on: Hypertriglyceridaemia caused by ethanole in the rats; assay: Hypertriglyceridaemia caused by ethanol in rats, duration of the effects; assay type: in vivo; conditions: rat, dose 1 mM/kg/os
Source text: For this test group the methods described by Sistori C.R. and colleagues (Atherosclerosis 30, 45; 1978) is followed.
The hypertriglyceridaemia has been induced into the male rats having a body weight of 160 - 170 g by giving them to drink, for 4 consecutive days, a solution of 10% ethanole in water.
In order to perform the particular kinetics of the compound in accordance with the example 1 following the instant invention, it was considered appropriate, anyway, to evaluate the duration of the hypolipaemizing effect in comparison to that of the nicotinic acid.
A group of normal animals was treated with the vehicle only and did serve as a negative control group.

COc1cc(OC)c(C(=O)CCCN2CCCC2)c(OC)c1 [Example 1, 4-(1 pyrrholydinyl)-1-(2,4,6 trimethoxypheniyl)-1-nicotinized butanone]
frequency of mutations [1]: did not increase | % inhibi-tions of the con-tractions ([2]; concentration 0,5 μ M): 45% | % inhibi-tions of the con-tractions ([2]; concentration 1,0 μ M): 70% | % inhibi-tions of the con-tractions ([2]; concentration 2,0 μ M): 94% | EC50 ([2]; read-out: DE50 (the source's name)): 580 nM | Temperature (°C) of the hind paws (n=10) ([3]; dose 0,015 mM/kg/iv, 0 minutes (before the treatment)): 24,3 ± 0,25 °C | Temperature (°C) of the hind paws (n=10) ([3]; dose 0,015 mM/kg/iv, 30 minutes from the treatment): 25,9 ± 0,18 °C | Temperature (°C) of the hind paws (n=10) ([3]; dose 0,015 mM/kg/iv, 60 minutes from the treatment): 25,8 ± 0,30 °C | Temperature (°C) of the hind paws (n=10) ([3]; dose 0,015 mM/kg/iv, 120 minutes from the treatment): 25,4 ± 0,22 °C | Temperature (°C) of the hind paws (n=10) ([3]; dose 0,030 mM/kg/iv, 0 minutes (before the treatment), listed as Compound according to the Ex.1): 24,2 ± 0,20 °C | Temperature (°C) of the hind paws (n=10) ([3]; dose 0,030 mM/kg/iv, 30 minutes from the treatment, listed as Compound according to the Ex.1): 26,7 ± 0,31 °C | Temperature (°C) of the hind paws (n=10) ([3]; dose 0,030 mM/kg/iv, 60 minutes from the treatment, listed as Compound according to the Ex.1): 26,5 ± 0,27 °C | Temperature (°C) of the hind paws (n=10) ([3]; dose 0,030 mM/kg/iv, 120 minutes from the treatment, listed as Compound according to the Ex.1): 26,3 ± 0,30 °C | Temperature (°C) of the hind paws ([3]; dose 0,125 mM/kg/os, 0 minutes (before the treatment)): 24,3 ± 0,24 °C | Temperature (°C) of the hind paws ([3]; dose 0,125 mM/kg/os, 30 minutes from the treatment): 24,7 ± 0,32 °C | Temperature (°C) of the hind paws ([3]; dose 0,125 mM/kg/os, 60 minutes from the treatment): 024,9 ± 0,30 °C | Temperature (°C) of the hind paws ([3]; dose 0,125 mM/kg/os, 120 minutes from the treatment): 25,2 ± 0,35 °C | Temperature (°C) of the hind paws ([3]; dose 0,250 mM/kg/os, 0 minutes (before the treatment)): 24,7 ± 0,20 °C | Temperature (°C) of the hind paws ([3]; dose 0,250 mM/kg/os, 30 minutes from the treatment): 25,2 ± 0,44 °C | Temperature (°C) of the hind paws ([3]; dose 0,250 mM/kg/os, 60 minutes from the treatment): 25,8 ± 0,32 °C | Temperature (°C) of the hind paws ([3]; dose 0,250 mM/kg/os, 120 minutes from the treatment): 25,5 ± 0,50 °C | Temperature (°C) of the hind paws ([3]; dose 0,500 mM/kg/os, 0 minutes (before the treatment), listed as Compound according to the Example 1): 24,6 ± 0,25 °C | Temperature (°C) of the hind paws ([3]; dose 0,500 mM/kg/os, 30 minutes from the treatment, listed as Compound according to the Example 1): 26,8 ± 0,30 °C | Temperature (°C) of the hind paws ([3]; dose 0,500 mM/kg/os, 60 minutes from the treatment, listed as Compound according to the Example 1): 27,5 ± 0,40 °C | Temperature (°C) of the hind paws ([3]; dose 0,500 mM/kg/os, 120 minutes from the treatment, listed as Compound according to the Example 1): 27,2 ± 0,45 °C | % variation vs positive controls (Trigliceridi) ([4]; 4 h): -38,2% | Trigliceridi ([4]; 4 h from the last treatment): 158,9 ± 11,6 mg/100 ml | % variation vs positive controls (Trigliceridi) ([4]; 6 h): -42,6% | Trigliceridi ([4]; 6 h from the last treatment): 135,6 ± 10,9 mg/100 ml | % variation vs positive controls (Trigliceridi) ([4]; 12 h): -31,5% | Trigliceridi ([4]; 12 h from the last treatment): 141,0 ± 21,1 mg/100 ml | % variation vs positive controls (Trigliceridi) ([4]; 16 h): -22,1% | Trigliceridi ([4]; 16 h from the last treatment): 145,3 ± 12,7 mg/100 ml | % variation vs positive controls (Trigliceridi) ([4]; 24 h): -9,2% | Trigliceridi ([4]; 24 h from the last treatment): 150,1 ± 8,4 mg/100 ml
